The results in this text go back to US20210070748A1, “INHIBITORS OF BRUTONS TYROSINE KINASE” (Pharmacyclics LLC, priority 2015, published 2021).

Read-outs that look alike come from different tables or passages of the source.

Type in all cases: biochemical
One assay has as its target T1, ITK (Homo sapiens, UniProt Q08881).
T1 sequence (Q08881 1-620): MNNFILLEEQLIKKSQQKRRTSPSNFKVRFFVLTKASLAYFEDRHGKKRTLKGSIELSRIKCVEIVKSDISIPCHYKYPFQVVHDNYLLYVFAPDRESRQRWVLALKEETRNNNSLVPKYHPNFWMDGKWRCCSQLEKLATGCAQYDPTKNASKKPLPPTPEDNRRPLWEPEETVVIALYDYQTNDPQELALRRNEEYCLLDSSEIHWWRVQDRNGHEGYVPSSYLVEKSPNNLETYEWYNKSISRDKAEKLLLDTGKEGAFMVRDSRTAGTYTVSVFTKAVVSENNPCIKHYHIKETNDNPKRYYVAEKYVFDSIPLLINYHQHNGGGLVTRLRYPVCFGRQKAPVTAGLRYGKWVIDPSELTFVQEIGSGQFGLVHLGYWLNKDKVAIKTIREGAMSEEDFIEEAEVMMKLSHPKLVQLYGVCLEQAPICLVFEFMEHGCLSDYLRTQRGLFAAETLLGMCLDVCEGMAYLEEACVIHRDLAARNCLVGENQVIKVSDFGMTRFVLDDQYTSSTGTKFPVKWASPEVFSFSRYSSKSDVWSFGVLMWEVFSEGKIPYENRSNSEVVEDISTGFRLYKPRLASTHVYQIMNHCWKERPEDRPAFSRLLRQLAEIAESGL
The experiment in a line: Inhibition of a panel of kinases, in vitro HotSpot kinase assay: ITK. On the procedure: The degree of inhibition of a panel of kinases is determined using the in vitro HotSpot kinase assay (purified enzymes, ^33P-ATP, an appropriate substrate and 1 μM ATP).

For the next assay, the target named is T2, JAK3 (Homo sapiens, UniProt P52333).
T2 sequence (P52333 1-1124): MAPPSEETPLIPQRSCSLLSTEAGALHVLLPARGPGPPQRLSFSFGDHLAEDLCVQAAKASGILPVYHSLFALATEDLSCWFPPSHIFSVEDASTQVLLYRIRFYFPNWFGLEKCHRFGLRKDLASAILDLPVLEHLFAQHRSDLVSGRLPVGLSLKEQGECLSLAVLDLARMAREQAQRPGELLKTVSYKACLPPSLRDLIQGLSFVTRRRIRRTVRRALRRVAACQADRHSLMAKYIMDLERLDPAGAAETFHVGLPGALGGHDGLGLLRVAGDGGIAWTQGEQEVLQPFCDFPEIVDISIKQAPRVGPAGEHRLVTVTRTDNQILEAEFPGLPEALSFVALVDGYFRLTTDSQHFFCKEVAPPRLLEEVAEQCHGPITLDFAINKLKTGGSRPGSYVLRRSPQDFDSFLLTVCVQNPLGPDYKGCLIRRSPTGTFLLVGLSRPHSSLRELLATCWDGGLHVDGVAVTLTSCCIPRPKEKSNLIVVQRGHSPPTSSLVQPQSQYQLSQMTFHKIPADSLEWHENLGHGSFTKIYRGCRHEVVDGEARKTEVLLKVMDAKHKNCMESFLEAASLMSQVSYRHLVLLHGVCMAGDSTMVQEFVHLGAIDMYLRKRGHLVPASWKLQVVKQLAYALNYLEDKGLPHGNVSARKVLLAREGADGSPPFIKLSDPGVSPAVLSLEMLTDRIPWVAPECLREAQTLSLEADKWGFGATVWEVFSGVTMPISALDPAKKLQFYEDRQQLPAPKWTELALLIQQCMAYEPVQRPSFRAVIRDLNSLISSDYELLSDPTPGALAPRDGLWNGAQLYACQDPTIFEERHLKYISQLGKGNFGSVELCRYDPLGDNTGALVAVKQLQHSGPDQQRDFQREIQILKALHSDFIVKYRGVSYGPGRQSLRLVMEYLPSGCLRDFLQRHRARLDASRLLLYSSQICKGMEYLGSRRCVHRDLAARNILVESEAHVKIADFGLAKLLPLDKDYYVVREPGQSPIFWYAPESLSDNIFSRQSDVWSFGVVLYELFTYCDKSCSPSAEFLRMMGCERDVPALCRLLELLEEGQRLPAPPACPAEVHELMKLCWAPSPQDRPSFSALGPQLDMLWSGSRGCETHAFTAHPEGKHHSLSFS
Description: Inhibition of a panel of kinases, in vitro HotSpot kinase assay: JAK3. The conditions noted are these: read-out: IC50 JAK3.

For another assay, the target named is LCK (Homo sapiens, UniProt P06239). The experiment in a line: Inhibition of a panel of kinases, in vitro HotSpot kinase assay: LCK. The conditions noted are these: read-out: IC50 LCK.
Sequence of LCK (P06239 whole entry): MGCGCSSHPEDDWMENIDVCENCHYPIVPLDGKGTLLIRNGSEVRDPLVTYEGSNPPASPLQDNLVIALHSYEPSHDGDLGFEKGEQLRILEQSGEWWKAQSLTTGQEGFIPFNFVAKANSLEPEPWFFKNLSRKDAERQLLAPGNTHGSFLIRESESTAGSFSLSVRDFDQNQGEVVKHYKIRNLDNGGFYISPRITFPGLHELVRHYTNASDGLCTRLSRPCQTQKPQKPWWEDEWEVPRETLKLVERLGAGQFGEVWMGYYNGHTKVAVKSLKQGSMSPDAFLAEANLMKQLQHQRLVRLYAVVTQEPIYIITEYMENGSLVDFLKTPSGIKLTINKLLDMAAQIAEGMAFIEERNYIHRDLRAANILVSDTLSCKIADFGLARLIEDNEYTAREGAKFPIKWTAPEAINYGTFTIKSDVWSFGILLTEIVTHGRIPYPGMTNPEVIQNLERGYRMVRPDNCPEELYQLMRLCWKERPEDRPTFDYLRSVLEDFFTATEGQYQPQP
The mark [1] stands for this setting: Table 13, A compounds, 1 μM ATP.

One may read the IC50 as the concentration needed to halve the response being measured.

As for `C[C@@H]1[C@H](NC(=O)c2ccc(C3CC3)cc2F)CCCN1c1cnc(C(N)=O)c(Nc2ccc(N3CCN(C)CC3)c(F)c2)n1` [Example A-171, 5-[(2R,3R)-3-(4-cyclopropyl-2-fluorobenzamido)-2-methylpiperidin-1-yl]-3-{[3-fluoro-4-(4-methylpiperazin-1-yl)phenyl]amino}pyrazine-2-carboxamide], the results for the concentration for half-maximal inhibition (IC50) against ITK (setting [1]), on JAK3 (setting [1]) and at LCK (setting [1]) were 0.1 to 1 µM, 1 to 10 µM and 0.01 to 0.1 µM, respectively.

Take `C[C@@H]1[C@H](n2ccc3cc(C4CC4)ccc3c2=O)CCCN1c1cnc(C(N)=O)c(Nc2ccc(N3CCN(C)CC3)cc2)n1` [Example A-140, 5-[(2R,3R)-3-(6-cyclopropyl-1-oxo-1,2-dihydro-isoquinolin-2-yl)-2-methylpiperidin-1-yl]-3-{[4-(4-methylpiperazin-1-yl)phenyl]amino}pyrazine-2-carboxamide]: the values for the half-maximal inhibitory concentration (IC50) against ITK (setting [1]), at JAK3 (setting [1]) and on LCK (setting [1]) were 0.1 to 1 µM, 1 to 10 µM and 0.01 to 0.1 µM, respectively.

Consider `C[C@@H]1[C@H](NC(=O)c2ccc(C3CC3)cc2F)CCCN1c1cnc(C(N)=O)c(Nc2cnn(C)c2)n1` [Example A-110, 5-[(2R,3R)-3-(4-cyclopropyl-2-fluorobenzamido)-2-methylpiperidin-1-yl]-3-[(1-methyl-1H-pyrazol-4-yl)amino]pyrazine-2-carboxamide], for which the IC50 on ITK (setting [1]) lay in the range of 0.1 to 1 µM; at JAK3 (setting [1]), 1 to 10 µM; on LCK (setting [1]), 1 to 10 µM.

For `C[C@@H]1[C@H](NC(=O)c2ccc(C3CC3)cc2)CCCN1c1cnc(C(N)=O)c(Nc2cc(CN3CCCCC3)ns2)n1` [Example A-181, 5-[(2R,3R)-3-(4-cyclopropylbenzamido)-2-methylpiperidin-1-yl]-3-{[3-(piperidin-1-ylmethyl)-1,2-thiazol-5-yl]amino}pyrazine-2-carboxamide], the IC50 at ITK (setting [1]) fell in the range of 0.01 to 0.1 µM; at JAK3 (setting [1]), 0.1 to 1 µM; on LCK (setting [1]), 0.01 to 0.1 µM.

In the case of `C=CC(=O)N1CCC[C@@H](Nc2nnc(C(N)=O)c(Nc3cc(C)ns3)n2)C1` [Example E-11, (R)-3-(1-acryloylpiperidin-3-ylamino)-5-(3-methylisothiazol-5-ylamino)-1,2,4-triazine-6-carboxamide], the half-maximal inhibitory concentration (IC50) against ITK (E compounds, Table 17) is at most 0.01 µM; on JAK3 (E compounds, Table 17), below 0.01 µM; at LCK (E compounds, Table 17) it was 0.01 to 0.1 µM.

Consider `C=CC(=O)N1CCC[C@@H](Nc2nnc(C(N)=O)c(Nc3ccc(C(C)(C)C)cc3)n2)C1` [Example E-24, (R)-3-(1-acryloylpiperidin-3-ylamino)-5-(4-tert-butylphenylamino)-1,2,4-triazine-6-carboxamide], for which the concentration for half-maximal inhibition (IC50) against ITK (E compounds, Table 17) is at most 0.01 µM; at JAK3 (E compounds, Table 17), below 0.01 µM; at LCK (E compounds, Table 17) it was 0.1 to 1 µM.

As for `Cc1nc(-c2ccc(C(=O)N[C@@H]3CCCN(c4cnc(C(N)=O)c(Nc5cnn(C)c5)n4)[C@@H]3C)cc2)cs1` [Example E-155, 3-((1-methyl-1H-pyrazol-4-yl)amino)-5-((2R,3R)-2-methyl-3-(4-(2-methylthiazol-4-yl)benzamido)piperidin-1-yl)pyrazine-2-carboxamide], the half-maximal inhibitory concentration (IC50) lay in the range of 0.1 to 1 µM at ITK (E compounds, Table 17); 0.1 to 1 µM at JAK3 (E compounds, Table 17); 0.01 to 0.1 µM at LCK (E compounds, Table 17).

In the case of `C[C@@H]1[C@H](NC(=O)c2ccc(C3CC3)cc2)CCCN1c1cnc(C(N)=O)c(Nc2ccc(N3CCN(C)C[C@@H]3C)cc2)n1` [Example E-148, 5-((2R,3R)-3-(4-cyclopropylbenzamido)-2-methylpiperidin-1-yl)-3-((4-((S)-2,4-dimethylpiperazin-1-yl)phenyl)amino)pyrazine-2-carboxamide], the concentration for half-maximal inhibition (IC50) at ITK (E compounds, Table 17) was in the range of 0.01 to 0.1 µM; at JAK3 (E compounds, Table 17), 0.1 to 1 µM; on LCK (E compounds, Table 17), 0.01 to 0.1 µM.

`C=CC(=O)N1CCC[C@@H](N(C)c2cnc(C(N)=O)c(Nc3ccc(C4(C)CCN(C5CCCC5)CC4)cc3)n2)C1` [Example E-103, (R)-5-((1-acryloylpiperidin-3-yl)(methyl)amino)-3-(4-(1-cyclopentyl-4-methylpiperidin-4-yl)phenylamino)pyrazine-2-carboxamide]: the IC50 on ITK (E compounds, Table 17) is at most 0.01 µM; on JAK3 (E compounds, Table 17) it was below 0.01 µM; at LCK (E compounds, Table 17), below 0.01 µM.

Take `C=CC(=O)N1CCC[C@@H](N(C)c2cnc(C(N)=O)c(Nc3ccc(C4CCN(C5CCCC5)CC4)cc3)n2)C1` [Example E-125, (R)-5-((1-acryloylpiperidin-3-yl)(methyl)amino)-3-(4-(1-cyclopentylpiperidin-4-yl)phenylamino)pyrazine-2-carboxamide]: the concentration for half-maximal inhibition (IC50) at ITK (E compounds, Table 17) is at most 0.01 µM; at JAK3 (E compounds, Table 17), below 0.01 µM; on LCK (E compounds, Table 17), 0.01 to 0.1 µM.

In the case of `C[C@@H]1[C@H](NC(=O)c2ccc(C3CC3)cc2F)CCCN1c1cnc(C(N)=O)c(Nc2ccc(C3(C)CCN(C4CCCC4)CC3)cc2)n1` [Example A-121, 3-{[4-(1-cyclopentyl-4-methylpiperidin-4-yl)phenyl]amino}-5-[(2R,3R)-3-(4-cyclopropyl-2-fluorobenzamido)-2-methylpiperidin-1-yl]pyrazine-2-carboxamide], the IC50 against ITK (setting [1]) is 0.01 to 0.1 µM; on JAK3 (setting [1]) it was 0.1 to 1 µM; on LCK (setting [1]), below 0.01 µM.

With `C[C@@H]1[C@H](NC(=O)c2ccc(C3CC3)cc2)CCCN1c1cnc(C(N)=O)c(Nc2ccc(N3CCN(C4COC4)C[C@@H]3C)cc2)n1` [Example E-142, 5-((2R,3R)-3-(4-cyclopropylbenzamido)-2-methylpiperidin-1-yl)-3-((4-((S)-2-methyl-4-(oxetan-3-yl)piperazin-1-yl)phenyl)amino)pyrazine-2-carboxamide], the concentration for half-maximal inhibition (IC50) on ITK (E compounds, Table 17) is 0.01 to 0.1 µM; on JAK3 (E compounds, Table 17) it was 1 to 10 µM; at LCK (E compounds, Table 17), 0.01 to 0.1 µM.

For the molecule `C[C@@H]1[C@H](NC(=O)c2ccc3c(c2)C(C)(C)OC3)CCCN1c1cnc(C(N)=O)c(Nc2cnn(C)c2)n1` [Example E-153, 5-((2R,3R)-3-(3,3-dimethyl-1,3-dihydroisobenzofuran-5-carboxamido)-2-methylpiperidin-1-yl)-3-((1-methyl-1H-pyrazol-4-yl)amino)pyrazine-2-carboxamide], the IC50 was 0.1 to 1 µM against ITK (E compounds, Table 17); 1 to 10 µM at JAK3 (E compounds, Table 17); 0.01 to 0.1 µM at LCK (E compounds, Table 17).

As to `C=CC(=O)N1CC[C@@H](N(C)c2nnc(C(N)=O)c(Nc3cc(C)ns3)n2)C1` [Example E-12, (R)-3-((1-acryloylpyrrolidin-3-yl)(methyl)amino)-5-(3-methylisothiazol-5-ylamino)-1,2,4-triazine-6-carboxamide], the IC50 is at most 0.01 µM at ITK (E compounds, Table 17); below 0.01 µM on JAK3 (E compounds, Table 17); 0.1 to 1 µM at LCK (E compounds, Table 17).

As for `Cn1cc(Nc2nc(N3C[C@@H](NC(=O)c4ccc(C5CC5)cc4)CC(F)(F)C3)cnc2C(N)=O)cn1` [Example A-187, (S)-5-(5-(4-cyclopropylbenzamido)-3,3-difluoropiperidin-1-yl)-3-(1-methyl-1H-pyrazol-4-ylamino)pyrazine-2-carboxamide], the 50% inhibitory concentration (IC50) at ITK (setting [1]) is above 10 µM; at JAK3 (setting [1]), 1 to 10 µM; on LCK (setting [1]), above 10 µM.
